Experimental data as given in publication PMC4493701, “Quantitative and qualitative analysis of the novel antitumor 1,3,4-oxadiazole derivative (GLB) and its metabolites using HPLC-UV and UPLC-QTOF-MS” (Scientific Reports, 2015).

Tests used:
[1] = Stability of GLB in rat plasma QC samples under storage and processing conditions (HPLC-UV); assay type: in vitro ADME; settings: for Measured concentration / Accuracy (RE, %): rat plasma
Protocol: The stability of GLB in rat plasma was determined by analyzing QC samples that was stored in different conditions, including: 1) room-temperature, 2) light irradiation for 24 hours, 3) post-preparation (the extracted samples stored at 4 °C for 48 hours and one week), 4) three cycles of freeze and thaw (freezing at −20 °C for 24 hours and thawing at room temperature), 5) long-term stored in −20 °C for up to 2 weeks, 1 month and 3 months, respectively. All the QC samples for stability assessment were analyzed in triplicate.
Under manifold storage and processing conditions, the stability of GLB in rat plasma was evaluated by analyzing three replicates for QC samples at 0.025, 0.5 and 4 μg/mL.
Calibration standard solutions were prepared by adding 25 μL of working standard solutions of GLB and IS into 375 μL blank rat plasma to achieve final concentrations of GLB of 0.01, 0.025, 0.05, 0.1, 0.5, 1, 4 and 8 μg/mL, and IS concentration of 1 μg/mL, respectively. QC samples were prepared in the same way using the low, medium and high concentrations of 0.025, 0.5 and 4 μg/mL, respectively.

[2] = system: human carcinoma cell lines including uterine cervix cancer cells, pulmonary adenocarcinoma cells, and prostate cancer cells (PC-3M); design: method as in earlier work; settings: multiple human carcinoma cell lines; cited from earlier work
[3] = Identification of GLB metabolites in rat plasma by UPLC-ESI-QTOF-MS; assay type: in vivo; settings: rat plasma after oral GLB 100 mg/kg; tentative, no metabolite standards
Excerpt: Because of two unknown chromatographic peaks were detected by HPLC after oral dose GLB in rat plasma, their structures were further identified and the metabolic pathways were investigated using UPLC-MS method. […] Based on the chromatographic retention times and mass spectral patterns (m/z and mass errors) between the parent drug and their product ions, the structures of metabolites of GLB could be estimated, in spite of lacking standards of metabolites. […] Metabolites M1 and M2 were detected at shorter retention times (2.56 and 2.86 min, respectively), and heavier molecular ions as m/z 529 (497 + 32 Da) and 513 (497 + 16 Da), respectively.
Furthermore, under the tandem mass spectrometry positive scan mode condition, the parent compound GLB was detected as protonated molecular ions at m/z 499 ([M+H]+) and sodium adduct (520, [M+Na]+), and fragment ion m/z 441, respectively (Fig. 3C). The metabolite M1 was detected as protonated molecular ions at m/z 529 ([M+H]+) and sodium adduct (m/z […], [M+Na]+), and fragment ions m/z 457, 449, 435 and 401, respectively. […]
The structure identifications of GLB and its metabolites were analyzed using a validated ultra-performance liquid chromatography- electrospray ionization-quadrupole-time-of-flight mass spectrometry (UPLC-ESI-QTOF-MS) method, as described in previous publications. […]

[4] = Freezing storage −20 °C for 1 month, actual concentration 0.025 μg/mL
[5] = Freezing storage −20 °C for 2 weeks, actual concentration 0.025 μg/mL
[6] = Freezing storage −20 °C for 2 weeks, actual concentration 0.5 μg/mL
[7] = Freezing storage −20 °C for 2 weeks, actual concentration 4 μg/mL
[8] = Light and room temperature for 24 hours, actual concentration 0.025 μg/mL
[9] = Light and room temperature for 24 hours, actual concentration 0.5 μg/mL
[10] = Light and room temperature for 24 hours, actual concentration 4 μg/mL
[11] = Post-preparative, 4 °C for 1 week, actual concentration 0.025 μg/mL
[12] = Post-preparative, 4 °C for 1 week, actual concentration 0.5 μg/mL
[13] = Post-preparative, 4 °C for 1 week, actual concentration 4 μg/mL
[14] = Post-preparative, 4 °C for 48 hours, actual concentration 0.025 μg/mL
[15] = Post-preparative, 4 °C for 48 hours, actual concentration 0.5 μg/mL
[16] = Post-preparative, 4 °C for 48 hours, actual concentration 4 μg/mL

In the case of CC(=O)N1N=C(c2ccc(Br)cc2)OC12C1OC(C)(C)OC1COC21COC(C)(C)O1 (stereo not shown) [GLB, Fructose-based 3-acetyl-2,3-dihydro-1,3,4-oxadiazole], the “Stability in rat plasma” value ([1]; 24 hours, 48 hours and 1 week at 4 °C, 2 weeks, 1 month and 3 months at −20 °C, three freeze-thaw cycles) is reported as “stable”, the Measured concentration ([1]; Freeze-thawing 3 cycles (−20 °C), actual concentration 0.025 μg/mL) is reported as 0.025 ± 0.001 µg/mL and the Measured concentration ([1]; Freeze-thawing 3 cycles (−20 °C), actual concentration 0.5 μg/mL) is reported as 0.467 ± 0.036 µg/mL. The Measured concentration ([1]; Freeze-thawing 3 cycles (−20 °C), actual concentration 4 μg/mL) was 3.732 ± 0.227 µg/mL, the “Accuracy (RE, %)” value [1, 4] was 8.66% and the Measured concentration [1, 4] was 0.027 ± 0.002 µg/mL. The Measured concentration ([1]; Freezing storage −20 °C for 1 month, actual concentration 0.5 μg/mL) was 0.490 ± 0.015 µg/mL, the Measured concentration ([1]; Freezing storage −20 °C for 1 month, actual concentration 4 μg/mL) was 4.097 ± 0.213 µg/mL and the “Accuracy (RE, %)” value [1, 5] was 8.17%. The Measured concentration [1, 5] was 0.027 ± 0.001 µg/mL, the “Accuracy (RE, %)” value [1, 6] was 7.10% and the Measured concentration [1, 6] was 0.535 ± 0.009 µg/mL. For the same molecule, the “Accuracy (RE, %)” value [1, 7] was 9.84%, the Measured concentration [1, 7] was 4.393 ± 0.090 µg/mL and the Measured concentration ([1]; Freezing storage −20 °C for 3 months, actual concentration 0.025 μg/mL) was 0.023 ± 0.002 µg/mL. For the same molecule, the Measured concentration ([1]; Freezing storage −20 °C for 3 months, actual concentration 0.5 μg/mL) was 0.487 ± 0.003 µg/mL, the Measured concentration ([1]; Freezing storage −20 °C for 3 months, actual concentration 4 μg/mL) was 3.918 ± 0.063 µg/mL and the “Accuracy (RE, %)” value [1, 8] was 4.17%. The Measured concentration [1, 8] was 0.026 ± 0.002 µg/mL, the “Accuracy (RE, %)” value [1, 9] was −2.79% and the Measured concentration [1, 9] was 0.486 ± 0.027 µg/mL. The “Accuracy (RE, %)” value [1, 10] was −1.94%, the Measured concentration [1, 10] was 3.922 ± 0.055 µg/mL and the “Accuracy (RE, %)” value [1, 11] was 3.83%. The Measured concentration [1, 11] was 0.026 ± 0.001 µg/mL, the “Accuracy (RE, %)” value [1, 12] was −14.4% and the Measured concentration [1, 12] was 0.428 ± 0.010 µg/mL. The “Accuracy (RE, %)” value [1, 13] was −8.30%, the Measured concentration [1, 13] was 3.668 ± 0.219 µg/mL and the “Accuracy (RE, %)” value [1, 14] was 5.31%. For the same molecule, the Measured concentration [1, 14] was 0.026 ± 0.001 µg/mL, the “Accuracy (RE, %)” value [1, 15] was 5.62% and the Measured concentration [1, 15] was 0.528 ± 0.007 µg/mL. The “Accuracy (RE, %)” value [1, 16] was 5.83%, the Measured concentration [1, 16] was 4.233 ± 0.196 µg/mL and the Effect on proliferation [2] was “inhibited proliferation”.
For CC(=O)N1N=C(c2ccc(Br)cc2)OC1(C1OC(C)(C)OC1C(=O)O)C1(O)COC(C)(C)O1 (stereo not shown) [M1], the “Identification (metabolic modification of GLB)” value [3] was “Di-hydroxylation”.
